Assay results reported in patent US20170044100A1, “INHIBITORS OF DRUG-RESISTANT MYCOBACTERIUM TUBERCULOSIS” (THE JOHNS HOPKINS UNIVERSITY, priority 2014, published 2017).
Converted amounts (≈) assume the structure as drawn. Like-named read-outs stand apart in the source and are kept apart here.

Tests used:
[1] = system: M. tuberculosis strain H37Rv; experiment: microbe, parasite or virus in culture; type: cell-based, Mycobacterium tuberculosis; parameters: MICMABA: unit not given here; conditions: for activity in comparison to the 4,6-dimethyl analog (1h): H37Rv MIC relative to 1h
M. tuberculosis H37Rv [2] = experiment: microbe, parasite or virus in culture; type: cell-based, Mycobacterium tuberculosis; parameters: MICBD / MBCBD: unit not given here
Vero cells = experiment: Cytotoxicity assay on Vero cells (alamar blue); conditions: for IC50: Chlorocebus sabaeus, Vero
[3] = Cytotoxicity assay on Vero cells (alamar blue); conditions: African green monkey, Vero cells (ATCC CCL-81)
[4] = system: V4207 (drug susceptible strain of M. tuberculosis); experiment: microbe, parasite or virus in culture; type: cell-based; conditions: Mycobacterium tuberculosis, MABA, read-out: MIC V4207 (DS)
M. tuberculosis H37Rv [5] = type: cell-based, Mycobacterium tuberculosis; conditions: 4× MIC
M. tuberculosis H37Rv [6] = type: in vivo, BALB/c mice
M. tuberculosis H37Rv [7] = conditions: 100 mg/kg oral gavage
[8] = Mycobacterium tuberculosis, parental H37Rv strain, read-out: MIC for H37Rv
[9] = Mycobacterium tuberculosis, H37RV
[10] = Mycobacterium tuberculosis, H37RV, read-out: MIC for H37Rv

## NCC[C@H](O)C(=O)N[C@@H]1C[C@H](N)[C@@H](O[C@H]2O[C@H](CN)[C@@H](O)[C@H](O)[C@H]2O)[C@H](O)[C@H]1O[C@H]1O[C@H](CO)[C@@H](O)[C@H](N)[C@H]1O [Amikacin]
[1]; [8]
  MIC: 1 µg/mL

## Cc1cc(C)c2cc(C(=O)Nc3ccc(C)c(F)c3)[nH]c2c1 [Compound 5, N-(3-Fluoro-4-methylphenyl)-4,6-dimethyl-1H-indole-2-carboxamide]
M. tuberculosis H37Rv [2]; H37Rv, broth dilution, Table 9
  MBCBD: 8
  MICBD: 0.5
Vero cells; read-out: IC50 Vero Cells
  IC50: > 64 µg/mL
[3]
  IC50 at 72 h: > 200 µM
[1]; H37Rv, MABA, Table 9
  MICMABA: 0.25
[1]; [9]
  MIC: 1.7 µM

## Cc1cc(C)c2cc(C(=O)Nc3ccncc3)[nH]c2c1 [Compound 6, N-(4-Pyridinyl)-4,6-dimethyl-1H-indole-2-carboxamide]
M. tuberculosis H37Rv [2]; H37Rv, broth dilution, Table 9
  MICBD: 64
[1]; H37Rv, MABA, Table 9
  MICMABA: 32
[1]; [9]
  MIC: 240 µM

## Cc1cc(C)c2cc(C(=O)NC3CCN(C)CC3)[nH]c2c1 [Compound 7, N-(1-Methyl-4-piperidinyl)-4,6-dimethyl-1H-indole-2-carboxamide]
[1]
  MICMABA: 128
[1]; [9]
  MIC: 448 µM

## Cc1cc(C)c2cc(C(=O)NC3CCN(C(C)C)CC3)[nH]c2c1 [Compound 8, N-(1-Isopropyl-4-piperidinyl)-4,6-dimethyl-1H-indole-2-carboxamide]
[1]; H37Rv, MABA, Table 9
  MICMABA: 64
[1]; [9]
  MIC: 204 µM

## Cc1cc(C)c2cc(C(=O)NC3CCCN(C)CC3)[nH]c2c1 (stereo not shown) [Compound 9, N-(1-Methyl-4-azepanyl)-4,6-dimethyl-1H-indole-2-carboxamide]
[1]; H37Rv, MABA, Table 9
  MICMABA: 128
[1]; [9]
  MIC: 428 µM

## Cc1cc(C)c2cc(C(=O)NC3CC3)[nH]c2c1 [Compound 10, N-Cyclopropyl-4,6-dimethyl-1H-indole-2-carboxamide]
M. tuberculosis H37Rv [2]; H37Rv, broth dilution, Table 9
  MICBD: 128
[1]; H37Rv, MABA, Table 9
  MICMABA: 64
[1]; [9]
  MIC: 561 µM

## Cc1cc(C)c2cc(C(=O)NC3CCCCCC3)[nH]c2c1 [Compound 11, N-Cycloheptyl-4,6-dimethyl-1H-indole-2-carboxamide]
[4]
  MIC: 0.11 µM (≈ 0.0313 µg/mL)
M. tuberculosis H37Rv [5]
  time to kill at least 4 log10 CFUs: ≤ 3 days
M. tuberculosis H37Rv [2]; H37Rv, broth dilution, Table 9
  MBCBD: 0.0312
  MICBD: 0.0156
M. tuberculosis H37Rv [2]; Mycobacterium tuberculosis, H37RV, read-out: minimum bactericidal concentration (MBC)
  MBC: 0.0313 µg/mL (≈ 0.11 µM)
Vero cells; read-out: IC50 Vero Cells
  IC50: > 64 µg/mL
Vero cells; read-out: IC50 for Vero cell viability
  IC50: > 64 µg/mL
Vero cells; Vero IC50 versus MIC, Table 9
  Selectivity Index: >2048
Vero cells; toxicity versus MIC
  selectivity index: > 2048
[3]
  IC50 at 72 h: > 200 µM
[1]; H37Rv, MABA, Table 9
  MICMABA: 0.0156
[1]; [9]
  MIC: 0.055 µM
[1]; Mycobacterium tuberculosis, control strains H37Rv and V4207, read-out: MIC
  MIC: 0.0156 to 0.0313 µg/mL
[1]; [8]
  MIC: 0.0156 to 0.0313 µg/mL

## Cc1cc(C)c2cc(C(=O)NC34CC5CC(CC(C5)C3)C4)[nH]c2c1 [Compound 13, N-(1-Adamantyl)-4,6-dimethyl-1H-indole-2-carboxamide]
Vero cells; read-out: IC50 Vero Cells
  IC50: > 64 µg/mL
[3]
  IC50 at 72 h: > 200 µM
[1]; H37Rv, MABA, Table 9
  MICMABA: 0.0019
[1]; [9]
  MIC: 0.012 µM

## Cc1cc(C)c2cc(C(=O)NC3C4CC5CC(C4)CC3C5)[nH]c2c1 (stereo not shown) [Compound 14, N-(2-Adamantyl)-4,6-dimethyl-1H-indole-2-carboxamide]
Vero cells; read-out: IC50 Vero Cells
  IC50: > 64 µg/mL
[3]
  IC50 at 72 h: > 200 µM
[1]; H37Rv, MABA, Table 9
  MICMABA: 0.0039
[1]; [9]
  MIC: 0.012 µM

## Cc1cc(C)c2cc(C(=O)NCC3CCCCC3)[nH]c2c1 [Compound 15, N-(Cyclohexylmethyl)-4,6-dimethyl-1H-indole-2-carboxamide]
M. tuberculosis H37Rv [2]; H37Rv, broth dilution, Table 9
  MBCBD: 0.25
  MICBD: 0.25
Vero cells; read-out: IC50 Vero Cells
  IC50: > 64 µg/mL
[3]
  IC50 at 72 h: > 200 µM
[1]; H37Rv, MABA, Table 9
  MICMABA: 0.25
[1]; [9]
  MIC: 0.88 µM

## Cc1cc(C)c2cc(C(=O)N(C)C3CCCCC3)[nH]c2c1 [Compound 16, N-Cyclohexyl-N,4,6-trimethyl-/H-indole-2-carboxamide]
M. tuberculosis H37Rv [2]
  MICBD: 128
[1]
  MIC: 450 µM
  MICMABA: 32

## Cc1cc(C)c2cc(C(=O)N3CCCCC3)[nH]c2c1 [Compound 17, (4,6-Dimethyl-11-1-indo1-2-yl)(piperidin-1-yl)methanone]
[1]
  MIC: >499 µM

## Cc1cc(C)c2cc(C(=O)NC3CCCCC3)n(C)c2c1 [Compound 18, N-Cyclohexyl-1,4,6-trimethyl-11-1-indole-2-carboxamide]
M. tuberculosis H37Rv [2]; H37Rv, broth dilution, Table 9
  MICBD: 128
[1]
  MICMABA: 128
[1]; [9]
  MIC: 450 µM

## O=C(NC1CCCCC1)c1cc2ccccc2[nH]1 [Compound 26, N-Cyclohexyl-1H-indole-2-carboxamide]
M. tuberculosis H37Rv [2]; H37Rv, broth dilution, Table 9
  MICBD: >128
[1]; H37Rv, MABA, Table 9
  MICMABA: 128

## Cc1ccc(NC(=O)c2cc3ccccc3[nH]2)cc1F [Compound 27, N-(3-Fluoro-4-methylphenyl)-1H-indole-2-carboxamide]
M. tuberculosis H37Rv [2]; H37Rv, broth dilution, Table 9
  MICBD: 128
[1]; H37Rv, MABA, Table 9
  MICMABA: 128

## O=C(NC1CCCCCCC1)c1cc2c(F)cc(F)cc2[nH]1 [Compound 29, N-Cyclooctyl-4,6-difluoro-1H-indole-2-carboxamide]
[1]
  activity in comparison to the 4,6-dimethyl analog (1h): 8 fold
[1]; H37Rv, MABA, Table 9
  MICMABA: 0.031

## COc1ccc2cc(C(=O)NC34CC5CC(CC(C5)C3)C4)[nH]c2c1 [Compound 30, N-(1-Adamantyl)-6-methoxy-1H-indole-2-carboxamide]
Vero cells; read-out: IC50 Vero Cells, Vero cells, Table 9
  IC50: 64 µg/mL (≈ 197 µM)
[1]; H37Rv, MABA, Table 9
  MICMABA: 0.25

## O=C(NC12CC3CC(CC(C3)C1)C2)c1cc2ccc(O)cc2[nH]1 [Compound 32, N-(1-Adamantyl)-6-hydroxy-1H-indole-2-carboxamide]
Vero cells; read-out: IC50 Vero Cells
  IC50: 16 µg/mL (≈ 51.5 µM)
[1]; H37Rv, MABA, Table 9
  MICMABA: 2

## Cc1cc(C)c2c(C(=O)NC3CCCCCC3)c[nH]c2c1 [Compound 41, N-Cycloheptyl-4,6-dimethyl-1H-indole-3-carboxamide]
[1]; H37Rv, MABA, Table 9
  MICMABA: >64

## Cc1cc(C)c2c(C(=O)NC3CCCCCCC3)c[nH]c2c1 [Compound 42, N-Cyclooctyl-4,6-dimethyl-1H-indole-3-carboxamide]
[1]; H37Rv, MABA, Table 9
  MICMABA: >64

## Cc1cc(C)c2c(C(=O)NC34CC5CC(CC(C5)C3)C4)c[nH]c2c1 [Compound 43, N-(1-Adamantyl)-4,6-dimethyl-1H-indole-3-carboxamide]
[1]; H37Rv, MABA, Table 9
  MICMABA: >64

## Cc1cc(C)c2c(C(=O)NC3C4CC5CC(C4)CC3C5)c[nH]c2c1 (stereo not shown) [Compound 44, N-(2-Adamantyl)-4,6-dimethyl-1H-indole-3-carboxamide]
[1]; H37Rv, MABA, Table 9
  MICMABA: >64

## O=C(NC1CCCCCCC1)c1cc2c(Cl)cc(Cl)cc2[nH]1 [Compound 70, N-Cyclooctyl-4,6-dichloro-1H-indole-2-carboxamide]
[1]; H37Rv, MABA, Table 9
  MICMABA: 0.0039

## CC[C@@H](CO)NCCN[C@@H](CC)CO [Ethambutol]
[1]; [8]
  MIC: 1 µg/mL

## NNC(=O)c1ccncc1 [Isoniazid, reference compound]
M. tuberculosis H37Rv [6]; isoniazid 10 mg/kg oral gavage daily (5 days per week), Day 7
  Mean lung CFU counts (standard deviation), Day 7: 5.508 (0.124)
M. tuberculosis H37Rv [6]; isoniazid 10 mg/kg oral gavage daily, Day 14
  Mean lung CFU counts (standard deviation), Day 14: 5.266 (0.089)
M. tuberculosis H37Rv [6]; isoniazid 10 mg/kg oral gavage daily, Day 28
  Mean lung CFU counts (standard deviation), Day 28: 4.561 (0.088)
[1]; H37Rv, MABA, Table 9
  MICMABA: 0.04
[1]; [9]
  MIC: 0.29 µM
[1]; [8]
  MIC: 0.04 µg/mL

## NC[C@H]1O[C@H](O[C@H]2[C@H](O)[C@@H](O[C@H]3O[C@H](CO)[C@@H](O)[C@H](N)[C@H]3O)[C@H](N)C[C@@H]2N)[C@H](O)[C@@H](O)[C@@H]1O [Kanamycin, reference compound]
[1]; [10]
  MIC: 2 µg/mL

## C[C@H]1COc2c(N3CCN(C)CC3)c(F)cc3c(=O)c(C(=O)O)cn1c23 [Levofloxacin, reference compound]
[1]; [8]
  MIC: 0.25 µg/mL

## COc1c(N2C[C@@H]3CCCN[C@@H]3C2)c(F)cc2c(=O)c(C(=O)O)cn(C3CC3)c12 [Moxifloxacin, reference compound]
[1]; [8]
  MIC: 0.0625 to 0.125 µg/mL

## CO[C@H]1/C=C/O[C@@]2(C)Oc3c(C)c(O)c4c(O)c(c(/C=N/N5CCN(C)CC5)c(O)c4c3C2=O)NC(=O)/C(C)=C\C=C\[C@H](C)[C@H](O)[C@@H](C)[C@@H](O)[C@@H](C)[C@H](OC(C)=O)[C@@H]1C [Rifampin]
[1]; [10]
  MIC: 0.125 µg/mL

## CC(C)=CCC/C(C)=C/CNCCNC1C2CC3CC(C2)CC1C3 (stereo not shown) [SQ109]
[1]; [8]
  MIC: 0.25 µg/mL

## BM212
[1]; parental H37Rv strain
  MIC for H37Rv: 2 µg/mL

## Capreomycin
[1]; parental H37Rv strain
  MIC for H37Rv: 1 µg/mL

## N-(2,3,5 -methyl, 4-dimethyl)-4,6-difluoro-1H-indole-2-carboxamide
M. tuberculosis H37Rv [7]; Balb/c mice
  bioavailability in vivo by serum inhibition titration: bioavailable in vivo
M. tuberculosis H37Rv [7]; isoniazid positive control
  serum inhibition activity compared with isoniazid: comparable to that of isoniazid
[1]
  activity in comparison to the 4,6-dimethyl analog (1h): as active as 1h
[1]; H37Rv, MABA, Table 9
  MICMABA: 0.0039

## N-(2,3,5 -methyl, 4-dimethyl)-6-bromo-1H-indole-2-carboxamide [BB]
[1]; H37Rv, MABA, Table 9
  MICMABA: 0.0039- 0.0078
